Results from patent US20240360194A1, “New Peptides as Potent and Selective GIP Receptor Agonists” (Sanofi, priority 2021, published 2024).
Numbered stars: 1 amine (or outer) side, 2 acyl side, 3 side chain; on linkers, the order of the positions; unused ones are H or OH. Square brackets hold non-standard residues; d marks the D form. Side chains are listed from the residue outwards. Peptide text beside a SMILES is read from it. * marks the point of attachment. C18 diacid = O=C(O)CCCCCCCCCCCCCCCCC(=O)*; γGlu = O=C(O)[C@H](CCC(=O)[*:2])N[*:1]; AEEA = NCCOCCOCC(=O)O; Aib = CC(C)(N)C(=O)O

What was measured:
[1] = biological target: human GLP-1 receptor (hGLP-1R) (Homo sapiens, UniProt P43220); experiment: In vitro cellular cAMP assay for GLP-1 receptor efficacy (HEK-293 cell line over-expressing receptor); assay type: cell-based; conditions: HEK-293, 0.1% BSA
human GIP receptor = biological target: T1, human GIP receptor (Homo sapiens, UniProt P48546); experiment: In vitro cellular cAMP assay for GIP receptor efficacy (human adipocytes); assay type: cell-based; conditions: for EC50: read-out: hGIPR EC50; for Emax: read-out: hGIPR Emax
T1 construct: human adipocytes endogenously expressing the human GIP receptor; host or cells: human preadipocytes (Lonza) differentiated to adipocytes
T1 sequence (P48546 22-466): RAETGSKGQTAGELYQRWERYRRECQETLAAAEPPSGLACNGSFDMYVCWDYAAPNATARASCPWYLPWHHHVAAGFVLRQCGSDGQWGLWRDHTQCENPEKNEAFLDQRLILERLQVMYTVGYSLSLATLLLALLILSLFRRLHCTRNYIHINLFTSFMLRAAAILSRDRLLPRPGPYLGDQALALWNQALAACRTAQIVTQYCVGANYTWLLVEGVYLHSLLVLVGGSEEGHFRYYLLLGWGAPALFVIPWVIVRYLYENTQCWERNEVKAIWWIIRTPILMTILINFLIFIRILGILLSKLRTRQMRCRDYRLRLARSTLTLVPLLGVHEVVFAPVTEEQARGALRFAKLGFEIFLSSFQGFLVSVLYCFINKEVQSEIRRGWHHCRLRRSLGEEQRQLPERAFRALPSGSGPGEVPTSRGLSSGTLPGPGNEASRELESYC
In short: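 Human preadipocytes expanded, then differentiated 6 days (insulin, dexamethasone, PPARγ agonist, 200 μM IBMX, L-thyroxine) before plating at 5000 cells/well. Test compound applied 30 min at room temperature; cAMP measured by HTRF after 1 h with lysis-buffer reagents, read as 665/620 nm fluorescence ratio.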

[2] = biological target: T2, human GIP receptor (hGIPR) (Homo sapiens, UniProt P48546); experiment: Binding assay, displacement of [125I]GIP from HEK-293 membranes over-expressing GIPR (SPA); conditions: [125I]GIP displacement
T2 sequence (P48546 22-466): T1 sequence (P48546 22-466)
In short: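 Membranes from HEK-293 cells over-expressing human GIPR or GLP-1R, isolated by homogenising, sonicating and ultracentrifuging at 100000×g into HEPES/EDTA/NaCl buffer with protease inhibitors, were used for binding.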

[3] = Pharmacokinetic evaluation in rats; assay type: in vivo; conditions: male, SD, rat, in vivo
Method: Compounds were administered in a suitable buffer system, e.g. PBS buffer solution at pH7.4 or DPBS solution at concentrations of 0.05, 0.1, 0.5 or 1 mg/ml depending on dose, species and administration volume. Male SD rats were dosed 0.25 mg/kg, 0.5 mg/kg or 1 mg/kg intravenously (i.v.) or subcutaneously (s.c.). Blood samples were collected after 0.08, 0.25, 0.5, 1, 2, 4, 8, 24, 32, and 48 h post i.v. application and 0.25, 0.5, 1, 2, 4, 8, 24, 32, and 48 h post s.c. application, respectively. Plasma samples were analysed after protein precipitation via liquid chromatography mass spectrometry (LC/MS). PK parameters and half-life were calculated using Phoenix-WinNonlin 8.1 using a non-compartmental model and linear trapezoidal interpolation calculation. Pharmacokinetic profiles were determined as described in Methods.

Sequence of human GLP-1 receptor (hGLP-1R) (P43220 24-463): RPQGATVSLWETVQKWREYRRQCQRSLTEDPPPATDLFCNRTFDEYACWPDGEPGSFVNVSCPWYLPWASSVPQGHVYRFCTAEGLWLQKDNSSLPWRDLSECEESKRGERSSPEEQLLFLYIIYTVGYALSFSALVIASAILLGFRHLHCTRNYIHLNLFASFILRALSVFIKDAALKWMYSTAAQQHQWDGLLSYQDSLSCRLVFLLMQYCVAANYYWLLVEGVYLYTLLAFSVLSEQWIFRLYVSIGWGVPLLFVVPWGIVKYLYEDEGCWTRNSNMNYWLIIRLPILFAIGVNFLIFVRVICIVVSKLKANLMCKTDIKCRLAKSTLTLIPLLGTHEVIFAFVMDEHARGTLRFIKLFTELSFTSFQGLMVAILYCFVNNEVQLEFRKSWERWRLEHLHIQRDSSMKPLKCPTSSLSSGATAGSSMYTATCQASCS

Structure (SMILES)	EC50 [1]	EC50 (human GIP receptor)	Emax (human GIP receptor)	IC50 [2]	AUC(0-t) ([3]; iv, 0.25 mg/kg)	Cmax ([3]; iv, 0.25 mg/kg)	clearance ([3]; iv, 0.25 mg/kg)	half-life ([3]; iv, 0.25 mg/kg)	AUC(0-t) ([3]; sc, 0.5 mg/kg)	Cmax ([3]; sc, 0.5 mg/kg)	bioavailability ([3]; sc, 0.5 mg/kg)	half-life ([3]; sc, 0.5 mg/kg)	F ([3]; sc, 0.5 mg/kg)
CC[C@H](C)[C@H](NC(=O)[C@H](Cc1ccccc1)NC(=O)[C@H](CCC(=O)O)NC(=O)C(C)(C)NC(=O)[C@H](CCC(N)=O)NC(=O)[C@H](Cc1c[nH]cn1)NC(=O)C(C)(C)NC(=O)[C@H](CCCNC(=N)N)NC(=O)[C@H](CC(=O)O)NC(=O)[C@H](CCCCNC(=O)COCCOCCNC(=O)COCCOCCNC(=O)CC[C@H](NC(=O)CCCCCCCCCCCCCCCCC(=O)O)C(=O)O)NC(=O)C(C)(C)NC(=O)[C@@H](NC(=O)[C@H](CO)NC(=O)[C@H](CC(C)C)NC(=O)[C@H](CC(=O)O)NC(=O)[C@H](CO)NC(=O)[C@@H](NC(=O)[C@H](Cc1ccccc1)NC(=O)[C@@H](NC(=O)CNC(=O)[C@H](CCC(=O)O)NC(=O)C(C)(C)NC(=O)[C@@H](N)Cc1ccc(O)cc1)[C@@H](C)O)[C@@H](C)CC)[C@@H](C)CC)C(=O)N[C@@H](CCC(=O)O)C(=O)N[C@@H](Cc1c[nH]c2ccccc12)C(=O)N[C@@H](CC(C)C)C(=O)N[C@@H](CC(C)C)C(=O)N[C@@H](C)C(=O)N[C@@H](CCC(N)=O)C(=O)N[C@@H](CCCNC(=N)N)C(=O)N1CCC[C@H]1C(=O)N[C@@H](CO)C(=O)N[C@@H](CO)C(=O)NCC(=O)N[C@@H](C)C(=O)N1CCC[C@H]1C(=O)N1CCC[C@H]1C(=O)N1CCC[C@H]1C(=O)N[C@@H](CO)C(N)=O [SEQ ID NO: 22, H2N-Y-Aib-E-G-T-F-I-S-D-L-S-I-Aib-K[{AEEA}2-gGlu-C18OH]-D-R-Aib-H-Q-Aib-E-F-I-E-W-L-L-A-Q-R-P-S-S-G-A-P-P-P-S-NH2] (H-Y[Aib]EGTFISDLSI[Aib]K([AEEA-AEEA-γGlu-C18 diacid])DR[Aib]HQ[Aib]EFIEWLLAQRPSSGAPPPS-NH2)	> 10 nM	0.6 nM	98%	1 nM	40200 ng·h/mL	6030 ng/mL	5.73 mL/h/kg	13.6 h	49900 ng·h/mL	1320 ng/mL	69%	15.5 h	
CC[C@H](C)[C@H](NC(=O)[C@H](Cc1ccccc1)NC(=O)[C@H](CCC(=O)O)NC(=O)[C@H](CCC(=O)O)NC(=O)[C@H](CCC(N)=O)NC(=O)[C@H](Cc1c[nH]cn1)NC(=O)[C@@H](NC(=O)[C@H](CCCNC(=N)N)NC(=O)[C@H](CC(=O)O)NC(=O)[C@H](CCCCNC(=O)COCCOCCNC(=O)COCCOCCNC(=O)CC[C@H](NC(=O)CCCCCCCCCCCCCCCCC(=O)O)C(=O)O)NC(=O)C(C)(C)NC(=O)[C@@H](NC(=O)[C@H](CO)NC(=O)[C@H](CC(C)C)NC(=O)[C@H](CC(=O)O)NC(=O)[C@H](CO)NC(=O)[C@@H](NC(=O)[C@H](Cc1ccccc1)NC(=O)[C@@H](NC(=O)CNC(=O)[C@H](CCC(=O)O)NC(=O)C(C)(C)NC(=O)[C@@H](N)Cc1ccc(O)cc1)[C@@H](C)O)[C@@H](C)CC)[C@@H](C)CC)[C@@H](C)CC)C(=O)N[C@@H](CCC(N)=O)C(=O)N[C@@H](Cc1c[nH]c2ccccc12)C(=O)N[C@@H](CC(C)C)C(=O)N[C@@H](CC(C)C)C(=O)N[C@@H](C)C(=O)N[C@@H](CCC(N)=O)C(=O)NCC(=O)N1CCC[C@H]1C(=O)N[C@@H](CO)C(=O)N[C@@H](CO)C(=O)NCC(=O)N[C@@H](C)C(=O)N1CCC[C@H]1C(=O)N1CCC[C@H]1C(=O)N1CCC[C@H]1C(=O)N[C@@H](CO)C(N)=O [SEQ ID NO: 35, H2N-Y-Aib-E-G-T-F-I-S-D-L-S-I-Aib-K[{AEEA}2-gGlu-C18OH]-DRIHQEEFIQWLLAQGPSSGAPPPS-NH2] (H-Y[Aib]EGTFISDLSI[Aib]K([AEEA-AEEA-γGlu-C18 diacid])DRIHQEEFIQWLLAQGPSSGAPPPS-NH2)	> 10 nM	1.3 nM	120%	0.6 nM	41600 ng·h/mL	5380 ng/mL	5.51 mL/h/kg	14.5 h	49900 ng·h/mL	2010 ng/mL		14.3 h	73%
